Measured values from patent EP3730489A1, “HETEROARYL COMPOUNDS AS AGROCHEMICAL FUNGICIDES” (BASF SE, priority 2019, dated 2020).

Legend:
Format in all cases: cell-based
Fusarium culmorum = assay: Activity against Fusarium culmorum (Fusacu), microtiter plate test; settings: relative growth vs active compound-free control (100%), measured at 405 nm 7 days after the inoculation; for activity at 31 ppm: Fusarium culmorum, 168 h
Description: (§1) The active compounds were formulated separately as a stock solution having a concentration of 10000 ppm in dimethyl sulfoxide.
4. Activity against Fusarium culmorum (Fusacu)
(§2) The stock solutions were mixed according to the ratio, pipetted onto a micro titer plate (MTP) and diluted with water to the stated concentrations. A spore suspension of Fusarium culmorum in an aqueous biomalt or yeast-bactopeptone-glycerine solution was then added. The plates were placed in a water vapor-saturated chamber at a temperature of 18°C. Using an absorption photometer, the MTPs were measured at 405 nm 7 days after the inoculation.
(§3) The measured parameters were compared to the growth of the active compound-free control variant (100%) and the fungus-free and active compound-free blank value to determine the relative growth in % of the pathogens in the respective active compounds.

Septoria tritici = assay: Activity against leaf blotch on wheat caused by Septoria tritici (Septtr), microtiter plate test; settings: relative growth vs active compound-free control (100%), measured at 405 nm 7 days after the inoculation
Description: as §1
3. Activity against leaf blotch on wheat caused by Septoria tritici (Septtr)
as §2, with “Septoria tritici” for “Fusarium culmorum”
as §3

Botrytis cinerea = assay: Activity against the grey mold Botrytis cinerea in the microtiterplate test (Botrci); settings: relative growth vs active compound-free control (100%), measured at 405 nm 7 days after the inoculation
Description: as §1
1. Activity against the grey mold Botrytis cinerea in the microtiterplate test (Botrci)
as §2, with “Botrci cinerea” for “Fusarium culmorum”, “yeast-bactopeptone-sodiumacetate” for “yeast-bactopeptone-glycerine”
as §3

| Compound | activity at 31 ppm (Fusarium culmorum) | growth (%) at 31ppm Septtr (Septoria tritici) | growth (%) at 31ppm Botrci (Botrytis cinerea) | growth (%) at 31ppm Fusacu (Fusarium culmorum) |
| --- | --- | --- | --- | --- |
| C#Cc1cnc2[nH]cc(-c3ocnc3Br)c2c1 [Example P8] | 0% | 15% | – | – |
| FC(F)(F)c1ncoc1-c1c[nH]c2ccc(Br)cc12 [Example P6] | – | 2% | 1% | – |
| FC(F)Oc1ccc2[nH]cc(-c3sccc3C(F)(F)F)c2n1 [Example P5] | 0% | 4% | 1% | – |
| Fc1cnc2[nH]cc(-c3ocnc3C(F)(F)F)c2c1 [Example 8, 5-(5-fluoro-1H-pyrrolo[2,3-b]pyridin-3-yl)-4-(trifluoromethyl)oxazole] | 6% | – | – | – |
| Brc1ccc2[nH]cc(-c3sccc3Br)c2c1 [Example P3] | 0% | 0% | 0% | – |
| C#Cc1cnc2[nH]cc(-c3ocnc3C(F)F)c2c1 [Example P10] | 6% | – | – | – |
| Fc1ncc2[nH]cc(-c3sccc3C(F)(F)F)c2n1 [Example P17] | 14% | – | – | – |
| 3-[3-(trifluoromethyl)-2-thienyl]-1H-indole-5-carbonitrile [Example 1] | – | 14% | – | 0% |
| C#Cc1cnc2[nH]cc(-c3ocnc3C(F)(F)F)c2c1 [Example 6, 5-(5-ethynyl-1H-pyrrolo[2,3-b]pyridin-3-yl)-4-(trifluoromethyl)oxazole] | 1% | 12% | 5% | – |
| C#Cc1ccc2[nH]cc(-c3sccc3Cl)c2c1 [Example P2] | 1% | 12% | 1% | – |
| Fc1cnc2[nH]cc(-c3ocnc3I)c2c1 [Example 9, 5-(5-fluoro-1H-pyrrolo[2,3-b]pyridin-3-yl)-4-iodooxazole] | 11% | – | – | – |
| Clc1ccsc1-c1c[nH]c2ccc(Br)cc12 [Example P1] | 1% | 8% | 0% | – |
| N#Cc1ccc2[nH]cc(-c3ocnc3C(F)(F)F)c2c1 [Example 2, 3-[4-(trifluoromethyl)oxazol-5-yl]-1H-indole-5-carbonitrile] | 7% | – | 6% | – |
| N#Cc1ccc2[nH]cc(-c3sccc3Br)c2c1 [Example P4] | 17% | – | – | – |
